Measurements reported in patent US8895574B2, “Benzyloxypyrimidine derivative, agricultural/ horticultural insecticide comprising derivative and method for using same” (Nihon Nohyaku Co., Ltd., priority 2010, dated 2014).

Test system: cattle tick (Haemaphysalis longicornis)
Assay: Acaricidal effect on cattle tick, absorbent cotton in glass bottle
Type: in vivo
Conditions: 96 h, 100 ppm drug solution, 2 ml, 4 days after inoculation, read-out: acaricidal effect against cattle tick (corrected mortality, judged by criterion)
Procedure: Acaricidal Effect on Cattle Tick (Haemaphysalis longicornis)
An absorbent cotton was placed on the basement of a glass bottle (diameter 3 cm×height 4.5 cm). The pyrimidine derivative of the present invention represented by the formula (I) or a salt thereof was dispersed in water to give a diluted drug solution (100 ppm). The drug solution (2 ml) was added dropwise. Cattle ticks were inoculated by 5 each, and the bottle was capped with a mesh. After 4 days from the inoculation, the dead ticks and live ticks were counted, and the corrected mortality was calculated by the following formula. corrected mortality (%)=(survival rate in untreated group−survival rate in treated group)/(survival rate in untreated group)×100 Diagnostic criteria . . . as defined in Experimental Example 1

## COc1cncnc1OCc1ccc(C(C)(C)C)cc1 [1-1, 4-(4-t-butylbenzyloxy)-5-methoxypyrimidine]
  mortality at 100 ppm: 50 to 79%
